Source: patent US10166246B2, “TGR5 agonist complexes for treating diabetes and cancer” (City of Hope, priority 2014, dated 2019)
“Also recorded” adds a separate entry of the source.

Experiments:
TGR5 [1] = biological target: T1, TGR5 (Homo sapiens, UniProt Q8TDU6); settings: HEK293 cells with human TGR5, pCRE-Luc; 0.1-50 μM test concentrations
T1 sequence (Q8TDU6 1-330): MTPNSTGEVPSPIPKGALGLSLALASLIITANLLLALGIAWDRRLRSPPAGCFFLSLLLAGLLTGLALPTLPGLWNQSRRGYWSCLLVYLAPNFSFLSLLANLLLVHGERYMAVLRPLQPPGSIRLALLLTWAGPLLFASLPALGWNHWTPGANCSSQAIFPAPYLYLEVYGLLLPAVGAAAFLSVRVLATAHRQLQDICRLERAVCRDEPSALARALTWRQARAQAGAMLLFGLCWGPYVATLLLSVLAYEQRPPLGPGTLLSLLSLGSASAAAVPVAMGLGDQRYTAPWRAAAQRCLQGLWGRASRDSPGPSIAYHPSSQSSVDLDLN
Experimental: HEK293 overexpressing TGR5 cells were transfected 100 ng pCRE-luc reporter along with 10 ng pCMV-beta-galactosidase by HiPerfect (Qiagen).
Complexes were evaluated for their ability to activate TGR5 at 0.1, 0.5, 1, 5.0, 10, 30, and 50 μM test concentrations.
Cell Culture: HEK293 and HEK293-TGR5 overexpressing cells were cultured in high glucose Dulbecco's modified Eagle's medium (DMEM, CELLGRO®, Manassas, Va.) with L-glutamine supplemented with 10% (vol/vol) heat-inactivated fetal bovine serum (Gemini Bio-Products, West Sacramento, Calif.). TGR5-overexpressing HEK293 cells were maintained in G418-containing media until plating. Cells were plated in 24-well plates (5×10^5 cells/well) 24 h before transfection. Prior to transfection, cells were rinsed with PBS, and media was replaced with DMEM without phenol red supplemented with 10% super-stripped FBS.
TGR5 and FXR Luciferase Assay: To evaluate TGR5 activity of compounds, cells were transfected 100 ng pCRE-luc reporter along with pCMV-galactosidase (10 ng) as an internal control for normalization of transfection efficiency. Plasmids were complexed with 2 mL of FUGENE® 6 reagent (Promega, Madison, Wis.) in OPTIMEM® (Invitrogen, Carlsbad, Calif.) and cells were transfected for 18 h. The following day, cells were treated with vehicle and appropriate ligand as indicated. […]

db/db mice = experiment: 5-week treatment of diabetic db/db mice (body weight, fasting glucose, liver and kidney weight, HbA1c); type: in vivo, mouse; settings: for significance of the effect in body weight loss: 30 mg/kg BW (0.057 mmol), 5 weeks
Experimental: FIG. 8 Effect on body weight of administration of ligand and complex administered […] for 5 weeks in db/db mice (seven per group), with vehicle controls.
For each experiment, there were 8 groups of mice representing the different treatments. […] Eleven-week old male normal and high-fat fed C57BL/6J mice and 7-week old male B6.BKS-Lepr^db (db/db) mice (The Jackson Laboratory, Bar Harbor, Me.) were acclimatized for at least one week on a 12-hour light/dark cycle at 68-72° F., then fed either a standard (10% fat kcal) or high-fat diet containing 60 kcal % fat (Research Diets, Inc., New Brunswick, N.J.) for the duration of the study. All animals were access to their respective diets and water ad libitum. […] For each group, each mouse was given the drugs via i.p. injection, three times a week (Monday, Wednesday, Friday) for a total duration of 5 weeks. Before, and in the course of treatment, body weight, water and food consumption (by weighing before and after weights of water bottles and leftover food in individual cages) were measured 2×per week, while blood glucose measurements were conducted weekly via tail-bleeding while on physical restraint using disposable cone-shaped plastic holders (Kent Scientific). Various tissues (liver, skeletal muscles and adipose tissues) and blood (for lipid, insulin and glucose measurements), were collected and analyzed at the end of the experiment. Before termination of the study, glucose tolerance tests were performed on each mouse on the last week of treatment. For the glucose tolerance test (GTT), after an overnight fast, mice were injected intraperitoneally with glucose (2 g/kg body weight). […] Mice were euthanized by CO2 asphyxiation according to the Association for Assessment and Accreditation of Laboratory Animal Care International guidelines. The different experimental groups had at least 8 animals each.

[2] = single oral dose; cited from earlier work
[3] = in vivo; cited from earlier work
TGR5 [4] = biological target: T1, TGR5; experiment: cAMP assay in HEK293 overexpressing TGR5; type: cell-based; parameters: expressed in transfected cells; host or cells: HEK293 overexpressing TGR5; settings: HEK293 cells, in vitro
Experimental: (§1) Data analysis to determine EC50 values was performed with GraphPad Prism software using a cAMP standard curve and sigmoidal dose-response (variable slope) equation based on dose-response curves with tested compounds.
as §1

Question: With Metformin-OA [DY310] as the compound, how does the “potency in luciferase assays against TGR5 compared to the native TGR5 agonist” value (TGR5 [1]) read?
Answer: greater potency in luciferase assays than oleanolic acid

Question: What does the source list for metformin-6eUDCA complex [DY306]?
Answer: effect on increase of HbA1c (db/db mice; db/db mice): dose dependently blocked the increase of HbA1c; glycemic control (db/db mice; db/db mouse model): improved glycemic control; significance of the effect in body weight loss (db/db mice; male db/db mice): not significant

Question: Which “significance of the effect in body weight loss” value (db/db mice; male db/db mice) does the source give for metformin-6eCDCA complex [DY305] here?
Answer: not significant

Question: And the “effect on body weight” value (db/db mice; male db/db mice, daily for 5 weeks)?
Answer: effective in body weight loss

Question: Which results are given for CN(C)C(=N)NC(=N)N [Metformin, N,N-dimethylbiguanidine]?
Answer: time until undetectable in blood plasma [2]: ≤ 24 h; decrease of the level of HbA1c [3]: 1-2%; direct activation of TGR5 to induce cAMP formation (TGR5 [4]): not a ligand for the TGR5; also recorded: did not directly activate TGR5
